A short description of test [1]: Agonist activity at rat M3'(3C)-Xa receptor expressed in african green monkey COS7 cells assessed as increase in myo-[3H]inositol hydrolysis. The format is functional, cell-based. The conditions noted are these: COS-7.
Test [2] can be described thus: Displacement of [3H]NMS from rat M3'(3C)-Xa receptor expressed in african green monkey COS7 cells. The class given is cell-based. The following applies: cos-7. (In general: In a radioligand displacement assay an active substance lowers the binding of a labelled ligand.)
Test [3] deals with Muscarinic acetylcholine receptor M3 (Rattus norvegicus), P08483 [A91C,T549C]. As to the kind of experiment: Inhibition of disulfide bond cross-linking in rat M3'(3C)-Xa receptor A91C/T549C mutant expressed in african green monkey COS7 cells at 1 mM by Western blotting. The following applies: COS-7. The class given is cell-based. (In general: A western blot detects proteins with antibodies after separation by electrophoresis.)

Test [4] deals with Muscarinic acetylcholine receptor M3 (Rattus norvegicus), P08483 [F92C,F550C]. As to the kind of experiment: Inhibition of disulfide bond cross-linking in rat M3'(3C)-Xa receptor F92C/F550C mutant expressed in african green monkey COS7 cells at 1 mM by Western blotting. The format is cell-based. The following applies: COS-7.
The test system of test [5] is Muscarinic acetylcholine receptor M3 (Rattus norvegicus), P08483 [A91C,T549C]. As to the kind of experiment: Stimulation of disulfide bond cross-linking formation in rat M3'(3C)-Xa receptor A91C/T549C mutant expressed in african green monkey COS7 cells by scanning densitometry relative to control. The format is cell-based. The following applies: COS-7.
In test [6] the test system is Muscarinic acetylcholine receptor M3 (Rattus norvegicus), P08483 [F92C,F550C]. As to the kind of experiment: Stimulation of disulfide bond cross-linking formation in rat M3'(3C)-Xa receptor F92C/F550C mutant expressed in african green monkey COS7 cells by scanning densitometry relative to control. The class given is cell-based. The conditions noted are these: COS-7.

Test [7] relates to Muscarinic acetylcholine receptor M3 (Rattus norvegicus), P08483 [A91C,T549C]. As to the kind of experiment: Enhancement of disulfide bond cross-linking formation in rat M3'(3C)-Xa receptor A91C/T549C mutant expressed in african green monkey COS7 cells at 100 nM by Western blotting. The conditions noted are these: COS-7. The format is cell-based.
For test [8], the system named is Muscarinic acetylcholine receptor M3 (Rattus norvegicus), P08483 [F92C,F550C]. As to the kind of experiment: Enhancement of disulfide bond cross-linking formation in rat M3'(3C)-Xa receptor F92C/F550C mutant expressed in african green monkey COS7 cells at 100 nM by Western blotting. The format is cell-based. The conditions noted are these: COS-7.
For test [9], the system named is Muscarinic acetylcholine receptor M3 (Rattus norvegicus), P08483 [A91C,T549C]. As to the kind of experiment: Inverse agonist activity at rat M3'(3C)-Xa receptor A91C/T549C mutant expressed in african green monkey COS7 cells assessed as reduction in basal inositol monophosphate accumulation at 10 uM. The format is functional, cell-based. The following applies: COS-7.

Test [10] concerns Muscarinic acetylcholine receptor M3 (Rattus norvegicus), P08483 [F92C,F550C]. As to the kind of experiment: Inverse agonist activity at rat M3'(3C)-Xa receptor F92C/F550C mutant expressed in african green monkey COS7 cells assessed as reduction in basal inositol monophosphate accumulation at 10 uM. The following applies: COS-7. The format is functional, cell-based.
The test system of another test is COS-7. As to the kind of experiment: Inverse agonist activity at rat M3'(3C)-Xa receptor expressed in african green monkey COS7 cells assessed as reduction in basal inositol monophosphate accumulation at 10 uM. The class given is functional, cell-based.

The structures appear in SMILES notation. pEC50, pKi: −log10 of the molar value. Active and inactive are the calls of the source. The rule behind the calls is not given here.

By pEC50 is commonly meant −log10 of the EC50, conventionally taken in molar units. In general, pKi refers to −log10 of the Ki, conventionally taken in molar units. Usually Emax stands for the size of the effect at its maximum, as opposed to the concentration needed.

Sequence of Muscarinic acetylcholine receptor M3 (Rattus norvegicus), P08483 [A91C,T549C] (P08483 whole entry A91C/T549C): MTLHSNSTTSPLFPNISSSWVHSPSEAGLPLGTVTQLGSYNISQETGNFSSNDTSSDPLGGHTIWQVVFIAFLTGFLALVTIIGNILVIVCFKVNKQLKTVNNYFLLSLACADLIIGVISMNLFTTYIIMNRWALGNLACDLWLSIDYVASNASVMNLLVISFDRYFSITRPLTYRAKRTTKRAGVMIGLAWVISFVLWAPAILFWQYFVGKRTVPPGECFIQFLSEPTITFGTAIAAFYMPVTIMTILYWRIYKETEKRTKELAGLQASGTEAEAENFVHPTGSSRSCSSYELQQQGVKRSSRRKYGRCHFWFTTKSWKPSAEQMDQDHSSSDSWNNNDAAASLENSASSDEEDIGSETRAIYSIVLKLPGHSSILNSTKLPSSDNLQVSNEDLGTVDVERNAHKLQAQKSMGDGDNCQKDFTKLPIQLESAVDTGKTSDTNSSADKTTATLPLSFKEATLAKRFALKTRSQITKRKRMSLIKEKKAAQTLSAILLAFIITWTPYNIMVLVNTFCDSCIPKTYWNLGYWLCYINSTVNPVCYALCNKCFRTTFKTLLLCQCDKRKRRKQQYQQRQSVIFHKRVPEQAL
Sequence of Muscarinic acetylcholine receptor M3 (Rattus norvegicus), P08483 [F92C,F550C] (P08483 whole entry F92C/F550C): as the sequence (P08483 whole entry A91C/T549C) above, with C91A, F92C, C549T, F550C counted along it

Regarding `C[N+](C)(C)CCOC(N)=O` [CARBACHOL], the pEC50 in test [1] was 7.20. Further, in [2], the pKi was 4.64. Besides, the result in [3] and in [4] was Active.

On to `C[N+]1(C)[C@@H]2C[C@@H](OC(=O)[C@H](CO)c3ccccc3)C[C@H]1[C@@H]1O[C@@H]12`, for which the Emax came to 244% in test [5] and 192% in test [6]. For the same compound, the outcome (in test [7]; in [8]; in test [9]; in [10]; in the test on COS-7) was Active.

With `CN1[C@@H]2CC[C@H]1C[C@@H](OC(=O)C(CO)c1ccccc1)C2` (stereo partly specified), the result (in [7]; in test [8]; in the test on COS-7) was Active.

As for `C[N+](C)(C)CC#CCN1CCCC1=O`, the result in [3] and in [4] was Active.

These data come from ChEMBL document CHEMBL1156485, “Distinct structural changes in a G protein-coupled receptor caused by different classes of agonist ligands” (J Biol Chem, 2007).
